Experimental data as given in PMC2453235, “Identification and Rational Redesign of Peptide Ligands to CRIP1, A Novel Biomarker for Cancers” (PLoS Computational Biology, 2008).
Where a SMILES comes first, the peptide text is derived from it. Bridges are numbered along the chain shown (N, C = ends).

Columns and labels:
[1] = biological target: T1, CRIP1 (Homo sapiens, UniProt P50238); assay: Saturation binding of FITC-labeled peptides; conditions: ΔΔG = RT ln K d,A1M − RT ln K d,A1, from apparent dissociation constants
T1 construct: enterokinase cleavage site and vector linker residues (N); made in house; host or cells: E. coli (pHAT10-CRIP1, IPTG induction)
T1 sequence (P50238 1-77): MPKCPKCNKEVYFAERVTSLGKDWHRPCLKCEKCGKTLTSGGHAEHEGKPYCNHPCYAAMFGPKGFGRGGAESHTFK
From the text: We computationally redesigned A1 resulting in a peptide with a new sequence (denoted as A1M) predicted to bind to CRIP1 with higher affinity. To test this prediction, A1, B5 and A1M peptides were all synthesized and labeled with FITC for binding studies. Since the peptides encoded by the C7C phage library are at the N-terminus of the minor phage coat protein pIII followed by a short phage encoded spacer Gly-Gly-Gly-Ser, we included this 4-mer in the synthesized peptide. An additional C-terminal Lys was also included in order to enable fluorescent labeling of the peptide. […] We synthesized the cyclic form of the peptides, A1, B5 and A1M and determined their ability to bind CRIP1 using saturation binding experiments. […] To directly compare the affinity of the A1 and A1M peptides for CRIP1 protein, we performed a competitive binding assay and determined the IC50 for each of the peptides using FITC-A1M as the ligand. […]
The binding affinity of the peptides for CRIP1 protein was determined by saturation binding experiments,[55]. […] The fluorescence intensity in each well was determined on Infinite M200 Tecan Instrument (Tecan, NC) (Excitation wavelength: 494 nm, Emission wavelength: 530 nm). The apparent equilibrium dissociation constant, K d,apparent, was calculated by non-linear regression using GraphPad Prism (GraphPad Prism 4.0 Software, San Diego, CA). […]

[2] = biological target: T1, CRIP1; assay: Competitive binding assay against FITC-A1M; conditions: A1M vs A1, competing for FITC-A1M binding, from IC50
Description: The binding affinity of the A1 and A1M peptides for CRIP1 protein was directly compared by a competitive binding experiment,[56]. Labeled A1M peptide (FITC-A1M) was competed with increasing concentrations of either unlabeled A1M peptides or A1 peptide and the IC50 for each peptide calculated.
Ninety-six well plates were coated with 150 µl of PBS buffer containing 100 µg/ml of CRIP1 and incubated overnight at 4°C. The wells were then washed 3 times with 50 mM Tris, 150 mM NaCl, pH 7.5 (TBS) containing 0.1% Tween-20 (TBST), and then each well filled completely with blocking buffer (TBS containing 0.5% BSA), incubated at least 1 hour at 4°C, and then rapidly washed 3 times with TBST. Following washing 150 µl of binding buffer containing FITC-A1M peptides of 10 µM and appropriate dilutions of unlabeled A1 and A1M peptides (ranging from 0 to 300 µM) were added to the CRIP1 containing wells and incubated for 1 hour at 37°C with rocking. After incubation, the plates were washed three times with binding buffer. The fluorescence intensity in each well was determined on Infinite M200 Tecan Instrument (Tecan, NC) (Excitation wavelength: 494 nm, Emission wavelength: 530 nm). Ki was calculated by non-linear regression with one binding site using GraphPad Prism (GraphPad Prism 4.0 Software, San Diego, CA). […]

experimental free energy change ΔΔG [1]: -6.69 kJ/mol
binding affinity relative to A1 (fold better) [2]: approximately 27.5 times
SMILES: CC(C)C[C@@H]1NC(=O)[C@@H](N)CSSC[C@@H](C(=O)NCC(=O)NCC(=O)NCC(=O)N[C@@H](CO)C(=O)N[C@@H](CCCCN)C(N)=O)NC(=O)CNC(=O)[C@H](CCCCN)NC(=O)CNC(=O)CNC(=O)CNC(=O)[C@H](CC(=O)O)NC1=O [A1M] (H-CLDGGGKGCGGGSK-NH2; disulfide 1-9; N-terminus assumed)
